From US6737383B1, “Herbicidal oxadiazolidines” (priority 1999, dated 2004)

Experiments:
bedstraw = test: Test B pre/postemergence bedstraw; format: in vivo, Galium aparine
In short: (§1)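 Response is a visual 0-to-10 score relative to untreated plants, where 0 means no effect and 10 means complete control, taken twelve to sixteen days after application. Treatments went onto soil at planting and onto foliage of 1- to 4-leaf plants, using a surfactant-containing non-phytotoxic solvent.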

crabgrass = test: Test B pre/postemergence crabgrass; format: in vivo, Digitaria sanguinalis
In short: as §1

giant foxtail = test: Test B pre/postemergence giant foxtail; format: in vivo, Setaria faberii
In short: as §1

purple nutsedge = test: Test B pre/postemergence purple nutsedge; format: in vivo, Cyperus rotundus
In short: as §1

velvetleaf = test: Test B pre/postemergence velvetleaf; format: in vivo, Abutilon theophrasti
In short: as §1

blackgrass = test: Test B pre/postemergence blackgrass; format: in vivo, Alopecurus myosuroides
In short: as §1

soybean = test: Test B pre/postemergence soybean; format: in vivo, Glycine max
In short: as §1

morningglory = test: Test B pre/postemergence morningglory; format: in vivo, Ipomoea hederacea
In short: as §1

sugar beet = test: Test B pre/postemergence sugar beet; format: in vivo, Beta vulgaris
In short: as §1

corn = test: Test B pre/postemergence corn; format: in vivo, Zea mays
In short: as §1

wheat = test: Test B pre/postemergence wheat; format: in vivo, Triticum aestivum
In short: as §1

wild oat = test: Test B pre/postemergence wild oat; format: in vivo, Avena fatua
In short: as §1

pigweed = test: Test B pre/postemergence pigweed; format: in vivo, Amaranthus retroflexus
In short: as §1

surinam grass = test: Test B pre/postemergence surinam grass; format: in vivo, Brachiaria decumbens
In short: as §1

cocklebur = test: Test B pre/postemergence cocklebur; format: in vivo, Xanthium strumarium
In short: as §1

rape = test: Test B pre/postemergence rape; format: in vivo, Brassica napus
In short: as §1

[1] = Preemergence, Rate 62 g/ha, scale of 0 to 10 where 0 is no effect and 10 is complete control
[2] = Preemergence, Rate 125 g/ha, scale of 0 to 10 where 0 is no effect and 10 is complete control
[3] = Preemergence, Rate 250 g/ha, scale 0 to 10 (0 no effect, 10 complete control)
[4] = Preemergence, Rate 500 g/ha, scale of 0 to 10 where 0 is no effect and 10 is complete control
[5] = Rate 500 g/ha, Postemergence, scale 0 to 10, 0 is no effect, 10 is complete control
[6] = Postemergence, Rate 62 g/ha, scale 0 to 10, 0 is no effect, 10 is complete control
[7] = Postemergence, Rate 125 g/ha, scale of 0 to 10 where 0 is no effect and 10 is complete control
[8] = Postemergence, Rate 250 g/ha, scale of 0 to 10, 0 is no effect, 10 is complete control

## CC(C)N(C(=O)n1oc(=O)n(CCF)c1=O)c1ccc(F)cc1F [Compound 670]
bedstraw; [1]
  Bedstraw plant response rating: 8
bedstraw; [2]
  Plant response rating, Bedstraw: 8
bedstraw; [3]
  Plant response rating, Bedstraw: 9
bedstraw; [4]
  Plant response rating, Bedstraw: 9
bedstraw; [5]
  Bedstraw plant response rating: 8
crabgrass; [6]
  Plant response rating, Crabgrass: 9
crabgrass; [7]
  Crabgrass plant response rating: 8
crabgrass; [8]
  Crabgrass plant response rating: 8
crabgrass; [1]
  Crabgrass plant response rating: 10
crabgrass; [2]
  Plant response rating, Crabgrass: 10
crabgrass; [3]
  Plant response rating, Crabgrass: 10
crabgrass; [4]
  Plant response rating, Crabgrass: 10
crabgrass; [5]
  Crabgrass plant response rating: 8
Giant foxtail; [6]
  Plant response rating, Giant foxtail: 9
Giant foxtail; [7]
  Giant foxtail plant response rating: 9
Giant foxtail; [8]
  Giant foxtail plant response rating: 9
Giant foxtail; [1]
  Giant foxtail plant response rating: 10
Giant foxtail; [2]
  Plant response rating, Giant foxtail: 10
Giant foxtail; [3]
  Plant response rating, Giant foxtail: 10
Giant foxtail; [4]
  Plant response rating, Giant foxtail: 10
Giant foxtail; [5]
  Giant foxtail plant response rating: 9
Purple nutsedge; [6]
  Plant response rating, Nutsedge: 0
Purple nutsedge; [7]
  Nutsedge plant response rating: 4
Purple nutsedge; [2]
  Plant response rating, Nutsedge: 5
Purple nutsedge; [3]
  Plant response rating, Nutsedge: 8
Purple nutsedge; [4]
  Plant response rating, Nutsedge: 10
Purple nutsedge; [5]
  Nutsedge plant response rating: 5
velvetleaf; [6]
  Plant response rating, Velvetleaf: 5
velvetleaf; [7]
  Velvetleaf plant response rating: 5
velvetleaf; [1]
  Velvetleaf plant response rating: 6
velvetleaf; [2]
  Plant response rating, Velvetleaf: 8
velvetleaf; [3]
  Plant response rating, Velvetleaf: 8
velvetleaf; [4]
  Plant response rating, Velvetleaf: 8
velvetleaf; [5]
  Velvetleaf plant response rating: 4
blackgrass; [6]
  Plant response rating, Blackgrass: 2
blackgrass; [7]
  Blackgrass plant response rating: 4
blackgrass; [8]
  Blackgrass plant response rating: 5
blackgrass; [1]
  Blackgrass plant response rating: 8
blackgrass; [2]
  Plant response rating, Blackgrass: 9
blackgrass; [3]
  Plant response rating, Blackgrass: 10
blackgrass; [4]
  Plant response rating, Blackgrass: 10
blackgrass; [5]
  Blackgrass plant response rating: 5
soybean; [6]
  Plant response rating, Soybean: 3
soybean; [7]
  Soybean plant response rating: 2
soybean; [1]
  Soybean plant response rating: 0
soybean; [2]
  Plant response rating, Soybean: 3
soybean; [3]
  Plant response rating, Soybean: 8
soybean; [4]
  Plant response rating, Soybean: 9
soybean; [5]
  Soybean plant response rating: 5
morningglory; [6]
  Plant response rating, Morningglory: 3
morningglory; [7]
  Morningglory plant response rating: 3
morningglory; [8]
  Morningglory plant response rating: 6
morningglory; [1]
  Morningglory plant response rating: 2
morningglory; [2]
  Plant response rating, Morningglory: 7
morningglory; [3]
  Plant response rating, Morningglory: 8
morningglory; [4]
  Plant response rating, Morningglory: 8
morningglory; [5]
  Morningglory plant response rating: 4
Sugar beet; [6]
  Plant response rating, Sugarbeets: 0
Sugar beet; [7]
  Sugarbeets plant response rating: 2
Sugar beet; [1]
  Sugarbeets plant response rating: 8
Sugar beet; [2]
  Plant response rating, Sugarbeets: 9
Sugar beet; [3]
  Plant response rating, Sugarbeets: 9
Sugar beet; [4]
  Plant response rating, Sugarbeets: 9
Sugar beet; [5]
  Sugarbeets plant response rating: 2
corn; [6]
  Plant response rating, Corn: 3
corn; [7]
  Corn plant response rating: 4
corn; [8]
  Corn plant response rating: 5
corn; [1]
  Corn plant response rating: 2
corn; [2]
  Plant response rating, Corn: 4
corn; [3]
  Plant response rating, Corn: 8
corn; [4]
  Plant response rating, Corn: 9
corn; [5]
  Corn plant response rating: 6
wheat; [6]
  Plant response rating, Wheat: 0
wheat; [7]
  Wheat plant response rating: 0
wheat; [1]
  Wheat plant response rating: 7
wheat; [2]
  Plant response rating, Wheat: 9
wheat; [3]
  Plant response rating, Wheat: 9
wheat; [4]
  Plant response rating, Wheat: 9
wheat; [5]
  Wheat plant response rating: 4
Wild oat; [6]
  Plant response rating, Wild oats: 0
Wild oat; [7]
  Wild oats plant response rating: 0
Wild oat; [1]
  Wild oats plant response rating: 7
Wild oat; [2]
  Plant response rating, Wild oats: 9
Wild oat; [3]
  Plant response rating, Wild oats: 9
Wild oat; [4]
  Plant response rating, Wild oats: 9
Wild oat; [5]
  Wild oats plant response rating: 3
pigweed; [6]
  Plant response rating, Redroot pigweed: 7
pigweed; [7]
  Redroot pigweed plant response rating: 7
pigweed; [1]
  Redroot pigweed plant response rating: 9
pigweed; [2]
  Plant response rating, Redroot pigweed: 10
pigweed; [3]
  Plant response rating, Redroot pigweed: 10
pigweed; [4]
  Plant response rating, Redroot pigweed: 10
pigweed; [5]
  Redroot pigweed plant response rating: 9
Surinam grass; [6]
  Plant response rating, B. signalgrass: 3
Surinam grass; [7]
  Plant response rating, B. signalgrass: 7
Surinam grass; [8]
  B. signalgrass plant response rating: 7
Surinam grass; [1]
  B. signalgrass plant response rating: 8
Surinam grass; [2]
  Plant response rating, B. signalgrass: 9
Surinam grass; [3]
  Plant response rating, B. signalgrass: 10
Surinam grass; [4]
  Plant response rating, B. signalgrass: 10
Surinam grass; [5]
  B. signalgrass plant response rating: 8
cocklebur; [6]
  Plant response rating, Cocklebur: 2
cocklebur; [7]
  Cocklebur plant response rating: 2
cocklebur; [8]
  Cocklebur plant response rating: 2
cocklebur; [1]
  Cocklebur plant response rating: 0
cocklebur; [2]
  Plant response rating, Cocklebur: 0
cocklebur; [4]
  Plant response rating, Cocklebur: 2
cocklebur; [5]
  Cocklebur plant response rating: 3
rape; [6]
  Plant response rating, Rape: 0
rape; [7]
  Rape plant response rating: 2
rape; [1]
  Rape plant response rating: 8
rape; [2]
  Plant response rating, Rape: 9
rape; [3]
  Plant response rating, Rape: 10
rape; [4]
  Plant response rating, Rape: 10
rape; [5]
  Rape plant response rating: 4
